Assay results taken from US20210293825A1, “METHODS FOR PRECISION THERAPEUTIC TARGETING OF HUMAN CANCER CELL MOTILITY AND KITS THEREOF” (UNITED STATES GOVERNMENT AS REPRESENTED BY THE DEPARTMENT …, priority 2018, published 2021).

Legend:
[1] = tested on: human breast cancer LM2-4H2N cells; test: Breast cancer orthotopic implantation / resection survival model; type: in vivo, SCID-Beige mice; conditions: post-surgery adjuvant, 25 mg/kg daily oral gavage five times/week
Protocol: Cohorts of N=12 athymic mice bearing human PCa PC3-M cell orthotopic implants (a), or of N=5 non-tumor bearing athymic mice (b), were treated with KBU2046 incorporated into chow, and resultant lung metastasis (a) or plasma KBU2046 concentration (b) measured. Values are the mean±SEM. The relationship between dose and metastasis was evaluated by two-sided ANOVA (a). FIG. 2c a comprehensive characterization of KBU2046 pharmacokinetics. CD1 mice were dosed with 100 mg KBU2046/kg via oral gavage or intravenous injection (iv), and blood collected at the indicated time points (data from mice dosed at 25 mg/kg are in FIG. 12, and corroborate 100 mg/kg findings). For each route and time point, N=3 mice were sampled. Individual data points are the resultant plasma concentrations from individual mice, and are the mean of N=2 measurements. The dotted horizontal line denotes a concentration of 24 nM, which was the concentration of KBU2046 measured in the blood of mice whose metastasis were suppressed by 92% (a-b). […] Mice were orthotopically implanted with human breast cancer LM2-4H2N cells, the resultant primary tumors resected, and adjuvant treatment begun with KBU2046 by daily oral gavage five times/week. The survival of N=6 mice receiving vehicle was compared to that of N=6 mice receiving 25 mg/kg KBU2046 by the log rank (Mantel-Cox) test.
Breast cancer: orthotopic implantation. […]

[2] = molecular target: T1, RAF1 with HSP90β and CDC37 (Homo sapiens, UniProt P08238+Q16543); test: HSP90β/CDC37 heterocomplex in vitro kinase assay with RAF1; type: biochemical; conditions: purified recombinant RAF1, HSP90β and CDC37
T1 construct: host or cells: E. coli for HSP90β and CDC37
Protocol: HEK293T cells were transfected with 1 of 420 different protein kinases, treated with 10 μM KBU2046 (N=5 replicates) or vehicle control (N=5) for three days, and LUMIER assays performed. The N=17 kinases that gave significant findings (Student's t-test <0.05) in the same direction in each of two separate experiments are depicted. Each separate treatment and kinase condition in each of two separate experiments was conducted in replicates of N=5. […] FIGS. 6c and 6d show the results of the wound healing assay. PC3 cells were transfected with siRNA targeting RAF1 (si-Raf1) or non-targeting siRNA (si-control), treated with KBU2046 or vehicle as above, and RAF1 protein measured by Western blot (c) and effects upon wound healing measured (d). […] Purified recombinant HSP90β, CDC37, and RAF1 were combined with KBU2046, as indicated, incubated in an in vitro kinase assay for the indicated times, and Western blot for RAF1-Ser^338 phosphorylation performed. FIGS. 6f and 6g show the effect on HSP90β/CDC37 heterocomplex formation and function in vitro. Purified recombinant HSP90β, CDC37, RAF1, SGK3 or MAP3K6 were combined and treated with KBU2046 or vehicle control, as indicated, incubated in an in vitro kinase assay for the indicated times, and Western blot performed, as denoted. Experiments were repeated at separate times at least once, with similar results. […]

T1 sequence (P08238 whole entry): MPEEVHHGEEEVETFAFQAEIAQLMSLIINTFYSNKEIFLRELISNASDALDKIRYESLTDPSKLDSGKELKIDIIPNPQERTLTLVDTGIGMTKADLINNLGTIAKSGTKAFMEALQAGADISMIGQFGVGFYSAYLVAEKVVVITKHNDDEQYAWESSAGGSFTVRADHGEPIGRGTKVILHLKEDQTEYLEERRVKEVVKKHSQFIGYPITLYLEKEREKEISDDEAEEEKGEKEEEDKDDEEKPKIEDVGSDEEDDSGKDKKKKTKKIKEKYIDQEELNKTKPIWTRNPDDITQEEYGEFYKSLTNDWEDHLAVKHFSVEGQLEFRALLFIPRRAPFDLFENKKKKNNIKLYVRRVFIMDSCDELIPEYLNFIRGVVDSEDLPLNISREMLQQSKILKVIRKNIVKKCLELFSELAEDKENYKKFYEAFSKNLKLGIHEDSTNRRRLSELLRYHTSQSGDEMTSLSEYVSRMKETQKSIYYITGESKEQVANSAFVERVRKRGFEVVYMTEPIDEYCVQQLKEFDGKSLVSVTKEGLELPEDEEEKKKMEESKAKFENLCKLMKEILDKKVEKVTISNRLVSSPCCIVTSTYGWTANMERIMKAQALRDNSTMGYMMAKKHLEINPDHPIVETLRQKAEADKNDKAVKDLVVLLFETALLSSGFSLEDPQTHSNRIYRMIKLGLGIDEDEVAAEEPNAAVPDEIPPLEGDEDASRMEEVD
T1 sequence (Q16543 whole entry): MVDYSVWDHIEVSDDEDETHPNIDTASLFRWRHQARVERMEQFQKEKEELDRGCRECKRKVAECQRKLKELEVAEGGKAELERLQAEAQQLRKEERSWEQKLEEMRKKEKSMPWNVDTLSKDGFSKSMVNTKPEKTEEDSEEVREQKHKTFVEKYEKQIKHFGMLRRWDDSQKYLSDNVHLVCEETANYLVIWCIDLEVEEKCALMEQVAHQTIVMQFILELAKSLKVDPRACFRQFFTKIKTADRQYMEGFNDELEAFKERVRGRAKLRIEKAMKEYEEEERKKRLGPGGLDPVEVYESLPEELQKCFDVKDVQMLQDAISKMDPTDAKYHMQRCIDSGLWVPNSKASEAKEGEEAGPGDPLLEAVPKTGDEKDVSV

O=C1c2ccccc2OCC1c1ccc(F)cc1 (racemic) [KBU2046, (±)-3(4-fluorophenyl)chroman-4-one]
survival [1]: significantly prolonged the survival | phosphorylation of RAF1 Ser338 activation motif [2]: decreased phosphorylation of RAF1's Ser338 activation motif
